Measured values from PubChem BioAssay (NCI).
Several values for one entry are separate records, joined by “and”; a condition that tells them apart may be missing. Identical values can stand only once.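 Values below derive from 48-hour exposures of cells grown in 96-well plates, with endpoints linearly interpolated between the two concentrations bracketing the appropriate inhibition level. GI50: concentration for 50% inhibition of growth. TGI marks complete inhibition of growth.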

Tests used:
Assay in all cases: growth of human tumour cells (NCI), 48 h
[1] = tested on: 786-0 renal
[2] = tested on: A498 renal
[3] = tested on: A549 NSCLC
[4] = tested on: ACHN renal
[5] = tested on: CAKI-1 renal
[6] = tested on: CCRF-CEM leukemia
[7] = tested on: COLO 205 colon
[8] = tested on: DLD-1 colon
[9] = tested on: DMS 114 small cell lung
[10] = tested on: DMS 273 small cell lung
[11] = tested on: EKVX NSCLC
[12] = tested on: HCC-2998 colon
[13] = tested on: HCT-116 colon
[14] = tested on: HCT-15 colon
[15] = tested on: HL-60(TB) leukemia
[16] = tested on: HOP-18 NSCLC
[17] = tested on: HOP-62 NSCLC
[18] = tested on: HOP-92 NSCLC
[19] = tested on: HT29 colon
[20] = tested on: IGROV1 ovarian
[21] = tested on: K-562 leukemia
[22] = tested on: KM12 colon
[23] = tested on: KM20L2 colon
[24] = tested on: LOX IMVI melanoma
[25] = tested on: M14 melanoma
[26] = tested on: M19-MEL melanoma
[27] = tested on: MALME-3M melanoma
[28] = tested on: MOLT-4 leukemia
[29] = tested on: NCI-H226 lung
[30] = tested on: NCI-H23 lung
[31] = tested on: NCI-H460 lung
[32] = tested on: NCI-H522 lung
[33] = tested on: OVCAR-3 ovarian
[34] = tested on: OVCAR-4 ovarian
[35] = tested on: OVCAR-5 ovarian
[36] = tested on: OVCAR-8 ovarian
[37] = tested on: RPMI-8226 leukemia
[38] = tested on: RXF 393 renal
[39] = tested on: SF-268 CNS
[40] = tested on: SF-295 CNS
[41] = tested on: SF-539 CNS
[42] = tested on: SK-MEL-2 melanoma
[43] = tested on: SK-MEL-28 melanoma
[44] = tested on: SK-MEL-5 melanoma
[45] = tested on: SK-OV-3 ovarian
[46] = tested on: SN12C renal
[47] = tested on: SNB-19 CNS
[48] = tested on: SNB-75 CNS
[49] = tested on: SNB-78 CNS
[50] = tested on: SR leukemia
[51] = tested on: SW-620 colon
[52] = tested on: TK-10 renal
[53] = tested on: U251 CNS
[54] = tested on: UACC-257 melanoma
[55] = tested on: UACC-62 melanoma
[56] = tested on: UO-31 renal
[57] = tested on: XF 498 CNS
[58] = tested on: BT-549 breast
[59] = tested on: DU-145 prostate
[60] = tested on: HS 578T breast
[61] = tested on: LXFL 529 NSCLC
[62] = tested on: MCF7 breast
[63] = tested on: MDA-MB-231 breast
[64] = tested on: MDA-MB-435
[65] = tested on: MDA-N
[66] = tested on: NCI/ADR-RES ovarian
[67] = tested on: PC-3 prostate
[68] = tested on: T-47D breast

Compound: CC(=O)C1=C(C)NC2C=CC=CN12 (centres undefined)
- TGI [1]: > 100 µM
- TGI [2]: > 100 µM
- TGI [3]: > 100 µM
- TGI [4]: > 100 µM
- TGI [5]: > 100 µM
- TGI [6]: > 100 µM
- TGI [7]: > 100 µM
- TGI [8]: > 100 µM
- TGI [9]: > 100 µM
- TGI [10]: > 100 µM
- TGI [11]: > 100 µM
- TGI [12]: > 100 µM
- TGI [13]: > 100 µM
- TGI [14]: > 100 µM
- TGI [15]: > 100 µM
- TGI [16]: > 100 µM
- TGI [17]: > 100 µM
- TGI [18]: > 100 µM
- TGI [19]: > 100 µM
- TGI [20]: > 100 µM
- TGI [21]: > 100 µM
- TGI [22]: > 100 µM
- TGI [23]: > 100 µM
- TGI [24]: > 100 µM
- TGI [25]: > 100 µM
- TGI [26]: > 100 µM
- TGI [27]: > 100 µM
- TGI [28]: > 100 µM
- TGI [29]: > 100 µM
- TGI [30]: > 100 µM
- TGI [31]: > 100 µM
- TGI [32]: > 100 µM
- TGI [33]: > 100 µM
- TGI [34]: > 100 µM
- TGI [35]: > 100 µM
- TGI [36]: > 100 µM
- TGI [37]: > 100 µM
- TGI [38]: > 100 µM
- TGI [39]: > 100 µM
- TGI [40]: > 100 µM
- TGI [41]: > 100 µM
- TGI [42]: > 100 µM
- TGI [43]: > 100 µM
- TGI [44]: > 100 µM
- TGI [45]: > 100 µM
- TGI [46]: > 100 µM
- TGI [47]: > 100 µM
- TGI [48]: > 100 µM
- TGI [49]: > 100 µM
- TGI [50]: > 100 µM
- TGI [51]: > 100 µM
- TGI [52]: > 100 µM
- TGI [53]: > 100 µM
- TGI [54]: > 100 µM
- TGI [55]: > 100 µM
- TGI [56]: > 100 µM
- TGI [57]: > 100 µM

Compound: COc1cc(CNc2ccc(SC)cc2)cc(OC)c1OC
- TGI [1]: 77.2 µM and 65.8 µM
- TGI [2]: 79.4 µM and 67.7 µM
- TGI [3]: > 100 µM
- GI50 [4]: 22.8 µM and 11 µM
- TGI [4]: > 100 µM
- GI50 [58]: 9.13 µM
- TGI [58]: > 100 µM
- GI50 [5]: 22.5 µM and 11.1 µM
- TGI [5]: > 97.1 µM
- TGI [6]: > 90.6 µM
- TGI [7]: 12.8 µM and 12.4 µM
- GI50 [8]: 12 µM and 5.85 µM
- TGI [8]: > 100 µM
- TGI [9]: 20.9 µM and 8.02 µM
- TGI [10]: 28.1 µM and > 36.7 µM
- GI50 [59]: 24.8 µM and 7.82 µM
- TGI [59]: > 95.7 µM
- TGI [11]: > 100 µM
- GI50 [12]: 11 µM and 4.92 µM
- TGI [12]: > 60 µM and 26.6 µM
- TGI [13]: 51.1 µM and 35.4 µM
- TGI [14]: 57.5 µM and 78.2 µM
- TGI [15]: 42.6 µM and 40.2 µM
- TGI [16]: > 100 µM
- GI50 [17]: 12.1 µM and 4.68 µM
- TGI [17]: > 100 µM and 61.1 µM
- GI50 [18]: 15.2 µM and 6.16 µM
- TGI [18]: > 96.1 µM and 47.6 µM
- TGI [60]: > 77.7 µM
- TGI [19]: 29.9 µM and 14.5 µM
- GI50 [20]: 17.2 µM and 7.73 µM
- TGI [20]: > 82.1 µM and 71.6 µM
- GI50 [21]: 3.99 µM and 1.49 µM
- TGI [21]: 44.9 µM and > 63.6 µM
- GI50 [22]: 4.44 µM and 2.21 µM
- TGI [22]: > 62.7 µM and 20.7 µM
- TGI [23]: 19.5 µM and 23.3 µM
- TGI [24]: > 59.7 µM and 45.9 µM
- TGI [61]: > 100 µM
- GI50 [25]: 5.28 µM
- TGI [25]: > 47 µM and 37.9 µM
- TGI [27]: > 100 µM
- TGI [62]: > 100 µM
- GI50 [63]: 15 µM and 6.23 µM
- TGI [63]: > 100 µM
- GI50 [64]: 1.67 µM and 0.638 µM
- TGI [64]: 80 µM
- GI50 [65]: 3.35 µM and 1.05 µM
- TGI [65]: 7.15 µM
- TGI [28]: > 100 µM
- GI50 [29]: 26.4 µM and 11.9 µM
- TGI [29]: > 100 µM and 84.7 µM
- GI50 [30]: 14.6 µM and 6.14 µM
- TGI [30]: 44 µM and 46.7 µM
- TGI [31]: > 100 µM
- TGI [32]: 29.3 µM and 11 µM
- TGI [66]: 23.9 µM and > 22.6 µM
- TGI [33]: 54.1 µM and 19.6 µM
- TGI [34]: > 100 µM
- TGI [35]: > 92.1 µM and 87.3 µM
- GI50 [36]: 27.1 µM and 7.69 µM
- TGI [36]: > 92.6 µM and 56 µM
- TGI [67]: > 100 µM and 47.7 µM
- TGI [37]: > 78.3 µM and 66.2 µM
- GI50 [38]: 2.27 µM and 6.5 µM
- TGI [38]: 39.6 µM and 42.7 µM
- GI50 [39]: 19.9 µM and 7.47 µM
- TGI [39]: > 100 µM and 69.3 µM
- GI50 [40]: 8.24 µM and 3.57 µM
- TGI [40]: 53.8 µM and 22.1 µM
- GI50 [41]: 11.4 µM and 3.06 µM
- TGI [41]: 44.4 µM and 12.3 µM
- TGI [42]: 46 µM and > 50.6 µM
- GI50 [43]: 23.7 µM and 5.71 µM
- TGI [43]: 99.4 µM and > 76.9 µM
- GI50 [44]: 11.6 µM and 4.51 µM
- TGI [44]: 59.6 µM and 16 µM
- GI50 [45]: 15.4 µM and 5.05 µM
- TGI [45]: 64.2 µM and 44.6 µM
- GI50 [46]: 19.3 µM and 9.07 µM
- TGI [46]: > 100 µM
- GI50 [47]: 25.4 µM and 10.1 µM
- TGI [47]: > 100 µM
- GI50 [48]: 15.7 µM and 6.28 µM
- TGI [48]: 86.3 µM and 65.5 µM
- TGI [49]: > 100 µM
- GI50 [50]: 4.17 µM and 1.63 µM
- TGI [50]: > 100 µM
- TGI [51]: > 100 µM
- GI50 [68]: 24.7 µM and 7.05 µM
- TGI [68]: > 100 µM and 69.8 µM
- GI50 [52]: 41 µM and 16.7 µM
- TGI [52]: > 93.3 µM and 77.5 µM
- GI50 [53]: 10.8 µM and 4.13 µM
- TGI [53]: 61.6 µM and 32.9 µM
- GI50 [54]: 24.9 µM and 9.7 µM
- TGI [54]: > 91.7 µM and 41.8 µM
- GI50 [55]: 10.7 µM and 4.64 µM
- TGI [55]: > 80.7 µM and 51.1 µM
- TGI [56]: 83.1 µM and 51.1 µM
- GI50 [57]: 23.4 µM and 11.1 µM
- TGI [57]: 91.2 µM and 40 µM
